# From publication PMC10221314 (Pharmaceuticals, 2023)
# “Also recorded” adds a separate entry of the source.
# Tests used:
# HFD mice = assay: CDAHFD diet-induced NASH mouse model; assay type: in vivo
# Experimental: (§1) Cells and liver tissue samples were subjected to RNA extraction and purification, followed by reverse transcription of equal amounts of total RNA into […] using a Transcriptor First Strand cDNA Synthesis Kit (Roche). The relative expression levels of the target gene were determined using TaqMan probe/primers with an ABI Q3 quantitative real-time PCR system, while GAPDH/Gapdh was utilized as an internal control for mRNA expression. The fold change in the expression of the target mRNA was calculated using Equation 2^−ΔΔCt.
# A total of 24 C57BL/6N mice were randomly assigned to three groups, including Ctrl., Model-N.S., and Model-10b-100 mg·kg^−1, with eight animals per group. The randomization process was performed using Research Randomizer (RRID: SCR_008563). CDHFD (D09100310) diet was obtained from Research Diets Inc. Sixteen mice were fed the CDHFD diet for 12 weeks to induce NASH, with eight mice receiving a normal diet as a control. At the beginning of the 13th week, the mice in the model group were randomly assigned into two groups and given daily gavages of either normal saline (Model-N.S. group) or 100 mg·kg^−1 of compound 10b suspended in 0.5% sodium carboxymethylcellulose solution (Model-10b groups) for four weeks. Daily bodyweights were recorded, and blood samples were collected from the abdominal aorta following an overnight fast. Afterward, the mice were euthanized using isoflurane. Liver tissue samples were obtained, and some were treated with 4% paraformaldehyde to prepare them for future histological analysis, while others were kept at −80 °C for later examination. Maximum liver lobule was collected for each mouse.
# Kits purchased from Zhongsheng Beikong Biotechnology (Beijing, China) were used to measure the serum concentrations of alanine aminotransferase, aspartate aminotransferase, alkaline phosphatase, γ-glutamyl transpeptidase, total cholesterol, total triglyceride, low-density lipoprotein (LDL), high-density lipoprotein (HDL) cholesterol, lactate dehydrogenase, total bile acid, and total bilirubin. The samples were analyzed on a Hitachi 7100 Analyzer.
# The liver tissue was fixed with formalin, embedded in paraffin, and sectioned. The sections were stained with H&E, Oil Red, Masson’s, and Sirius Red. Liver necrosis, inflammation, bile duct proliferation, hepatic steatosis, and lobule inflammation were evaluated on a scale of 1–5 in a blinded manner using a Leica DM1000 microscope. Five randomly selected manifold area fields of vision were used to quantify the red area in each field of vision (eight in each group), which was counted using ImageJ software. The liver hydroxyproline concentration was determined using kits from Nanjing, China, in accordance with the manufacturer’s instructions.
# The mouse liver samples were cut into small pieces of 50 mg size and homogenized in TG, TC, and FC extracts using a high-speed tissue homogenizer. The TG, TC, and FC were then extracted from the tissue, and their contents in the sample were calculated using the protein content for calibration. The determination process utilized the test kit for TC, TG, and FC of high-fat samples from Applygen Technologies Inc. (E1025, E1026, E1027).
# [1] = Stability of compound 10b in mouse plasma at 37 °C (HPLC); assay type: in vitro ADME; set-up: recovery at 6 h / recovery at 48 h: dose or concentration left out as unconfirmed; settings: for Mass of 10b extracted from mouse plasma: theoretical mass 38.5 μg
# Experimental: 3. Stability test of compound 10b
# To preliminarily determine the stability of compound 10b in a biological environment, an in vitro experimental verification method was employed. The trace compound was dissolved in mouse plasma to simulate the biological environment.
# Samples were taken at different time intervals at 37 °C, and the content of the compound was determined by HPLC C18 analytical column. The peak area of the absorption at 220 nm was utilized for content calculation.
# The standard curve shown in Fig. S1 can be plotted using the peak area and the mass of compound 10b in the corresponding volume of the solution. The relationship is y = 23.253x+ 100.67 (R2 = 0.9994), which meets linearity requirements and can be used for subsequent operations.
# Fig. S1. The relationship curve between the absorption peak area and mass of compound 10b at 220 […]
# Subsequently, a mouse with a body weight of 20 g and blood volume of 1 mL was calculated based on the subsequent in vivo experiment’s dosage (100 mg·Kg-1).
# Assuming 100% absorption, the converted plasma drug concentration is 2 mg·mL -1.
# Based on the calculation, 0.5 mg of 10b was added to […] of mouse plasma to prepare a mixed solution. The plasma was then processed after 1h, 6h, 12 h, 24 h, and 48 h, respectively. The compound content in the sample was compared to the initial content with UV absorption and retention time (t = 6.5 min). […]
# significant decrease in the content of 10b was observed between 0 to 48 hours, […]
# LX-2 cells = assay: mRNA expression of liver fibrosis marker genes in TGFβ1-induced LX-2 cells; assay type: cell-based; settings: 20 μM, induced by 2 ng·mL^−1 TGFβ1, 24 h
# Experimental: as §1
# (A–E) The LX-2 cells underwent a 24 h treatment of 2 ng·mL^−1 TGFβ1, with or without varying concentrations of candidate compounds, following FBS starvation. […] GAPDH/GAPDH was used as the loading control. The mean ± SD values were obtained from three independent assays. […] ANOVA was followed by Tukey’s test for statistical analysis.
# [2] = HFD (CDAHFD) mice, 100 mg·kg-1 gavage daily, four weeks
smiles,measurement,setting,value
"CC1(C)CCC2(C(=O)O)CCC3(C)C(C(OC(=O)CCC(NC(=O)OC(C)(C)C)C(=O)OC(C)(C)C)CC4C5(C)CCC(O)C(C)(C)C5CCC43C)C2C1 [Compound 10b, 3β-hydroxy-12β-(4′-((tert-butoxycarbonyl)amide)-5′-(tert-butoxy)-L-glutamte)oxy-13H-olean-28-oic acid]",hepatic lobular inflammation (NAS score),"HFD mice; CDAHFD mice, 100 mg·kg-1",improved
same,intrahepatic steatosis (NAS score),"HFD mice; CDAHFD mice, 100 mg·kg-1",improved
same,liver FC (free cholesterol),"HFD mice; CDAHFD mice, 100 mg·kg-1",no significant effect
same,liver TC,"HFD mice; CDAHFD mice, 100 mg·kg-1",no significant effect
same,total triglyceride content in the liver,"HFD mice; CDAHFD mice, 100 mg·kg-1",reduced
same,Serum ALP,HFD mice; [2],189.71±29.41 U·L-1
same,Serum ALT,HFD mice; [2],325.43±88.40 U·L-1
same,Serum AST,HFD mice; [2],401.86±91.05 U·L-1
same,Serum CHO,HFD mice; [2],2.36 ± 0.44 mmol/L
same,Serum Glu,HFD mice; [2],5.71 ± 1.25 mmol/L
same,Serum HDL,HFD mice; [2],1.22 ± 0.33 mmol/L
same,Serum LDH,HFD mice; [2],1326.57±264.54 U·L-1
same,Serum LDL,HFD mice; [2],0.23 ± 0.04 mmol/L
same,Serum TBA,HFD mice; [2],23.46 ± 12.81 µmol/L
same,Serum TBiL,HFD mice; [2],3.81 ± 0.92 µmol/L
same,mRNA expression of liver fibrosis-related genes in liver,"HFD mice; NASH mouse model, 100 mg·kg-1",inhibit
same,"recovery at 0 h, 0.0025 mg/mL","[1]; 0 h, read-out: Recovery rate",68%
same,Mass of 10b extracted from mouse plasma,[1]; 0 h,26.2 µg
same,content of 10b in mouse plasma (stability),[1]; 0 to 48 h,existed stably in mouse plasma; also recorded: remained almost unchanged
same,"recovery at 1 h, 0.0025 mg/mL","[1]; 1 h, read-out: Recovery rate",70.9%
same,Mass of 10b extracted from mouse plasma,[1]; 1 h,27.3 µg
same,recovery at 6 h,"[1]; 6 h, read-out: Recovery rate",75.8%
same,Mass of 10b extracted from mouse plasma,[1]; 6 h,29.2 µg
same,"recovery at 12 h, 0.0025 mg/mL","[1]; 12 h, read-out: Recovery rate",63.4%
same,Mass of 10b extracted from mouse plasma,[1]; 12 h,24.4 µg
same,"recovery at 24 h, 0.0025 mg/mL","[1]; 24 h, read-out: Recovery rate",68.5%
same,Mass of 10b extracted from mouse plasma,[1]; 24 h,26.4 µg
same,recovery at 48 h,"[1]; 48 h, read-out: Recovery rate",76.6%
same,Mass of 10b extracted from mouse plasma,[1]; 48 h,29.5 µg
same,mRNA expression of ACTA2,LX-2 cells,significantly decrease
same,mRNA expression of COL1A1,LX-2 cells,significantly decrease
same,mRNA expression of CTGF,LX-2 cells,significantly decrease
same,mRNA expression of ITGAV,LX-2 cells,significantly decrease
same,mRNA expression of TGFb1,LX-2 cells,significantly decrease
